The record followed here is US5656622A, “15,15-dialkyl-substituted derivatives of estradiol” (Schering Aktiengesellschaft, priority 1993, dated 1997).

Data set [1] deals with 17β-hydroxysteroid dehydrogenase from human placenta. The data set is described as follows: stability against 17β-hydroxysteroid dehydrogenase, incubation with placenta microsomes. To be noted: NADP 0.5 mmol. It counts as in vitro ADME. As for the experimental part:
To determine the stability of estradiol (A) itself as well as of a compound according to the invention, i.e., 15,15-dimethyl-estra-1,3,5(10)-triene-3,17β-diol (B), against 17β-hydroxysteroid dehydrogenase from human placenta, the test substances are incubated with placenta microsomes in the presence of NADP (nicotinamide-adenine-dinucleotide phosphate; 0.5 mmol).
The steroids (initial substrate and product) are extracted and separated by HPLC. For evaluation, the quotients are formed from the electronically integrated peak areas of the corresponding reaction product (namely the assumed 17-keto compound) and the initial substance and plotted against the incubation time (FIG. 1).

The subject of data set [2] is estrogen receptor. In words: estrogen receptor binding test. To be noted: tissue from rat uteri, 3H-estradiol as reference substance. The protocol:
The estrogenic effectiveness of the compounds according to the invention can be shown by the results of the estrogen receptor binding test. In this known in vitro test, tissue from rat uteri is prepared and radioactively-labeled ^3 H-estradiol is used as reference substance. The compound according to the invention 15,15-dimethyl-estra-1,3,5(10)-triene-3,17β-diol accordingly has a competition factor K of 1.5.

Turning to `CC1(C)C[C@H](O)[C@@]2(C)CC[C@@H]3c4ccc(O)cc4CC[C@H]3[C@H]12` [15,15-dimethylestra-1,3,5(10)-triene-3,17β-diol], the “conversion to the 17-keto compound by 17β-hydroxysteroid dehydrogenase (quotient of HPLC peak areas product/initial substance against incubation time, FIG. 1)” value in data set [1] was “only moderate substrate”. Besides, the “competition factor K” value in data set [2] came out at 1.5.
